Read-outs that look alike come from different tables or passages of the source.
Tests used:
[1] = tested on: S6 Ribosomal Protein phosphorylation Ser235/236 in TSC1 null mouse embryo fibroblast (MEF) cells; test: Reverse protein array, S6 Ribosomal Protein phosphorylation in TSC1 null MEF cells; type: cell-based; details: 1 h, TSC1-/- MEFs, 60 minutes
Method in brief: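 Phospho-S6 (Ser235/236) was quantified by reverse protein array of cell lysates with a phospho-specific primary antibody. […]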

PI3K alfa = target: T1, PI3K alfa (Homo sapiens, UniProt P42336); test: PI3K alpha kinase assay (Kinase-Glo luminescence); type: biochemical
T1 construct: His tag (C); made in house; host or cells: baculovirus BV1075; Tn5 (Trichoplusia ni) or TiniPro insect cells
Method in brief: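 IC50 values come from a four-parameter logistic fit of percent inhibition at eight concentrations, typically 10 to 0.003 μM. Recombinant PI3Kα at 10 nM turned over 1 μM ATP with 10 μg/mL PI for 60 min at room temperature, and residual ATP was measured by Kinase-Glo.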

T1 sequence (P42336 with tags, fused parts or gaps limits assumed): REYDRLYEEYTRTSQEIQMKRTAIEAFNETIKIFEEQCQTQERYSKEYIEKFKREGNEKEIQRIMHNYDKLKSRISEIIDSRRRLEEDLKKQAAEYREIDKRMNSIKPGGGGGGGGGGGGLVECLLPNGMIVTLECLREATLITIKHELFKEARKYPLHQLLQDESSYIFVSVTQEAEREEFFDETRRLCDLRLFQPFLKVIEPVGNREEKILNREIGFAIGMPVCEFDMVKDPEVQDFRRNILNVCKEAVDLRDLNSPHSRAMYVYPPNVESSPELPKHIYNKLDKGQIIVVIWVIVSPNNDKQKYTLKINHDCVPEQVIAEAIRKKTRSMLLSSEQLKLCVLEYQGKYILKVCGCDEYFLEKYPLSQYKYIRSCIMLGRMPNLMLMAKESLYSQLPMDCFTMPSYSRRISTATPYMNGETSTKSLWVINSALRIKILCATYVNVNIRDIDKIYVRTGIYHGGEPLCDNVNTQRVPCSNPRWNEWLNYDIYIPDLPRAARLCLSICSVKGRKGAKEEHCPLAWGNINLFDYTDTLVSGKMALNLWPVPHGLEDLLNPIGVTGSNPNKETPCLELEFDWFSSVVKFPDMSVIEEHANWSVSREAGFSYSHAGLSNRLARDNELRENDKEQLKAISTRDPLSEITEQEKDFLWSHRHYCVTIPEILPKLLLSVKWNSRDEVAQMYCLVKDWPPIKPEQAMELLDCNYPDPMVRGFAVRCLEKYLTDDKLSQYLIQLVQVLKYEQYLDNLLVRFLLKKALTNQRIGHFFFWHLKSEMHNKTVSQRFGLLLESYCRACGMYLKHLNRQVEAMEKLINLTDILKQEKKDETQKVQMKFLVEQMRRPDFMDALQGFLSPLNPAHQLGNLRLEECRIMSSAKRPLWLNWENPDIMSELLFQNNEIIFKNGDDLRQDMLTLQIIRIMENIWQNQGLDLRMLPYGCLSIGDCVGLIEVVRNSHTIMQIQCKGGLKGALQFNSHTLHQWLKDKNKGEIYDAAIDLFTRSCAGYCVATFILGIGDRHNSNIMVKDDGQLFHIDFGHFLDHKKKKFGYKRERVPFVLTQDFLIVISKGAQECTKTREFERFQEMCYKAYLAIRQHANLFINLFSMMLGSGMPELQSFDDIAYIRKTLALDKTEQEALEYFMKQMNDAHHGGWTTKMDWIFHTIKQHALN

| Structure (SMILES) | IC50 (PI3K alfa; read-out: EPK_PI3Kalfa/IC50) | IC50 (PI3K alfa; read-out: PI3Kalfa/IC50) | IC50 ([1]; read-out: p-S6 IC50) | IC50 ([1]; read-out: p-S6) |
| --- | --- | --- | --- | --- |
| Cc1nc(N2CC(O)C2)ccc1-n1c(=O)n(C)c2cnc3ccc(-c4cncc(C(C)(C)O)c4)cc3c21 [Example 29.1, 1-[6-(3-Hydroxy-azetidin-1-yl)-2-methyl-pyridin-3-yl]-8-[5-(1-hydroxy-1-methyl-ethyl)-pyridin-3-yl]-3-methyl-1,3-dihydro-imidazo[4,5-c]quinolin-2-one] | 19 nM | – | 15 nM | – |
| COCc1ncc(-c2ccc3ncc4c(c3c2)n(-c2cccnc2C)c(=O)n4C)cc1OC [Example 2.30, 8-(5-Methoxy-6-methoxymethyl-pyridin-3-yl)-3-methyl-1-(2-methyl-pyridin-3-yl)-1,3-dihydro-imidazo[4,5-c]quinolin-2-one] | 75 nM | – | 34 nM | – |
| CNc1ncc(-c2ccc3ncc4c(c3c2)n(-c2ccc(N3CC[C@H](O)C3)nc2C)c(=O)n4C)cc1Cl [Example 32.4, 8-(5-Chloro-6-methylamino-pyridin-3-yl)-1-[6-((S)-3-hydroxy-pyrrolidin-1-yl)-2-methyl-pyridin-3-yl]-3-methyl-1,3-dihydro-imidazo[4,5-c]quinolin-2-one] | 18 nM | – | 4 nM | – |
| COc1ccc(-n2c(=O)n(C)c3cnc4ccc(-c5cncc(N6CCC6)c5)cc4c32)c(OC)n1 [Example 8.11, 8-(5-Azetidin-1-yl-pyridin-3-yl)-1-(2,6-dimethoxy-pyridin-3-yl)-3-methyl-1,3-dihydro-imidazo[4,5-c]quinolin-2-one] | 365 nM | – | 1 nM | – |
| CNC(=O)c1ccc(-c2ccc3ncc4c(c3c2)n(-c2cccnc2C)c(=O)n4C)cc1 [Example 2.4, N-Methyl-4-[3-methyl-1-(2-methyl-pyridin-3-yl)-2-oxo-2,3-dihydro-1H-imidazo[4,5-c]quinolin-8-yl]-benzamide] | – | 29 nM | – | 23.1 nM |
| COc1ccc(-n2c(=O)n(C)c3cnc4ccc(-c5cnc(C(OC)OC)c(OC)c5)cc4c32)c(OC)n1 [Example 8.13, 8-(6-Dimethoxymethyl-5-methoxy-pyridin-3-yl)-1-(2,6-dimethoxy-pyridin-3-yl)-3-methyl-1,3-dihydro-imidazo[4,5-c]quinolin-2-one] | 247 nM | – | 15 nM | – |
| CNc1ncc(-c2ccc3ncc4c(c3c2)n(-c2ccc(N3CC[C@@H](O)C3)nc2C)c(=O)n4C)cn1 [Example 34.1, 1-[6-((R)-3-Hydroxy-pyrrolidin-1-yl)-2-methyl-pyridin-3-yl]-3-methyl-8-(2-methylamino-pyrimidin-5-yl)-1,3-dihydro-imidazo[4,5-c]quinolin-2-one] | 97 nM | – | 3 nM | – |
| Cc1ncccc1-n1c(=O)n(C)c2cnc3ccc(-c4cnc5[nH]ccc5c4)cc3c21 [Example 2.8, 3-Methyl-1-(2-methyl-pyridin-3-yl)-8-(1H-pyrrolo[2,3-b]pyridin-5-yl)-1,3-dihydro-imidazo[4,5-c]quinolin-2-one] | – | 26 nM | – | – |
| Cc1nc(N2CCC(O)C2)ccc1-n1c(=O)n(C)c2cnc3ccc(-c4cncc(C(C)(C)O)c4)cc3c21 (centres unmarked) [Example 27.5, 8-[5-(1-Hydroxy-1-methyl-ethyl)-pyridin-3-yl]-1-[6-(3-hydroxy-pyrrolidin-1-yl)-2-methyl-pyridin-3-yl]-3-methyl-1,3-dihydro-imidazo[4,5-c]quinolin-2-one] | 10 nM | – | 33 nM | – |
| Cc1nc(F)ccc1-n1c(=O)n(C)c2cnc3ccc(-c4cncc(N5CCC5)c4)cc3c21 [Example 7.6, 8-(5-Azetidin-1-yl-pyridin-3-yl)-1-(6-fluoro-2-methyl-pyridin-3-yl)-3-methyl-1,3-dihydro-imidazo[4,5-c]quinolin-2-one] | 68 nM | – | 7 nM | – |
| CCNc1cc(-c2ccc3ncc4c(c3c2)n(-c2ccc(N(C)CCO)nc2C)c(=O)n4C)cnc1CO [Example 26.3, 8-(5-Ethylamino-6-hydroxymethyl-pyridin-3-yl)-1-{6-[(2-hydroxy-ethyl)-methyl-amino]-2-methyl-pyridin-3-yl}-3-methyl-1,3-dihydro-imidazo[4,5-c]quinolin-2-one] | 84 nM | – | – | – |
| CCOc1ccc(-c2ccc3ncc4c(c3c2)n(-c2ccc(N3CCC(O)C3)nc2C)c(=O)n4C)cn1 (centres unmarked) [Example 27.4, 8-(6-Ethoxy-pyridin-3-yl)-1-[6-(3-hydroxy-pyrrolidin-1-yl)-2-methyl-pyridin-3-yl]-3-methyl-1,3-dihydro-imidazo[4,5-c]quinolin-2-one] | 39 nM | – | – | – |
| Cn1c(=O)n(-c2cccnc2F)c2c3cc(-c4cnc5[nH]ccc5c4)ccc3ncc21 [Example 6.3, 1-(2-Fluoro-pyridin-3-yl)-3-methyl-8-(1H-pyrrolo[2,3-b]pyridin-5-yl)-1,3-dihydro-imidazo[4,5-c]quinolin-2-one] | – | 41 nM | – | – |
| CNc1ncc(-c2ccc3ncc4c(c3c2)n(-c2ccc(N3CCC(OC)C3)nc2C)c(=O)n4C)cn1 (centres unmarked) [Example 28.2, 1-[6-(3-Methoxy-pyrrolidin-1-yl)-2-methyl-pyridin-3-yl]-3-methyl-8-(2-methylamino-pyrimidin-5-yl)-1,3-dihydro-imidazo[4,5-c]quinolin-2-one] | 34 nM | – | 1 nM | – |
| Cc1nc(N2CCC(O)C2)ccc1-n1c(=O)n(C)c2cnc3ccc(-c4cnc(N)c(C(F)(F)F)c4)cc3c21 (centres unmarked) [Example 27.3, 8-(6-Amino-5-trifluoromethyl-pyridin-3-yl)-1-[6-(3-hydroxy-pyrrolidin-1-yl)-2-methyl-pyridin-3-yl]-3-methyl-1,3-dihydro-imidazo[4,5-c]quinolin-2-one] | 5 nM | – | – | – |

More lines, main results first:

| IC50 (PI3K alfa; read-out: EPK_PI3Kalfa/IC50) | IC50 (PI3K alfa; read-out: PI3Kalfa/IC50) | Structure (SMILES) | IC50 ([1]; read-out: p-S6 IC50) | IC50 ([1]; read-out: p-S6) |
| --- | --- | --- | --- | --- |
| 24 nM | – | COc1cc(-c2ccc3ncc4c(c3c2)n(-c2ccc(F)nc2C)c(=O)n4C)cnc1CO [Example 7.10, 1-(6-Fluoro-2-methyl-pyridin-3-yl)-8-(6-hydroxymethyl-5-methoxy-pyridin-3-yl)-3-methyl-1,3-dihydro-imidazo[4,5-c]quinolin-2-one] | 15 nM | – |
| 127 nM | – | COCc1ncc(-c2ccc3ncc4c(c3c2)n(-c2ccc(F)nc2C)c(=O)n4C)cc1OC [Example 7.7, 1-(6-Fluoro-2-methyl-pyridin-3-yl)-8-(5-methoxy-6-methoxymethyl-pyridin-3-yl)-3-methyl-1,3-dihydro-imidazo[4,5-c]quinolin-2-one] | 113 nM | – |
| 56 nM | – | COc1cc(-c2ccc3ncc4c(c3c2)n(-c2ccc(N3CC(F)(F)C3)nc2C)c(=O)n4C)cnc1CO [Example 24.4, 1-[6-(3,3-Difluoro-azetidin-1-yl)-2-methyl-pyridin-3-yl]-8-(6-hydroxymethyl-5-methoxy-pyridin-3-yl)-3-methyl-1,3-dihydro-imidazo[4,5-c]quinolin-2-one] | – | – |
| 27 nM | – | COc1cc(-c2ccc3ncc4c(c3c2)n(-c2ccc(N3CCCC3)nc2C)c(=O)n4C)cnc1CO [Example 25.4, 8-(6-Hydroxymethyl-5-methoxy-pyridin-3-yl)-3-methyl-1-(2-methyl-6-pyrrolidin-1-yl-pyridin-3-yl)-1,3-dihydro-imidazo[4,5-c]quinolin-2-one] | 7 nM | – |
| 23 nM | – | COc1cc(-c2ccc3ncc4c(c3c2)n(-c2ccc(N3CCC(OC)C3)nc2C)c(=O)n4C)cnc1CO (centres unmarked) [Example 28.3, 8-(6-Hydroxymethyl-5-methoxy-pyridin-3-yl)-1-[6-(3-methoxy-pyrrolidin-1-yl)-2-methyl-pyridin-3-yl]-3-methyl-1,3-dihydro-imidazo[4,5-c]quinolin-2-one] | 8 nM | – |
| 28 nM | – | CCNc1cc(-c2ccc3ncc4c(c3c2)n(-c2ccc(N3CCCC3)nc2C)c(=O)n4C)cnc1CO [Example 25.5, 8-(5-Ethylamino-6-hydroxymethyl-pyridin-3-yl)-3-methyl-1-(2-methyl-6-pyrrolidin-1-yl-pyridin-3-yl)-1,3-dihydro-imidazo[4,5-c]quinolin-2-one] | – | – |
| 27 nM | – | CCNc1cc(-c2ccc3ncc4c(c3c2)n(-c2ccc(N3CC(F)(F)C(F)(F)C3)nc2C)c(=O)n4C)cnc1CO [Example 35.2, 8-(5-Ethylamino-6-hydroxymethyl-pyridin-3-yl)-3-methyl-1-[2-methyl-6-(3,3,4,4-tetrafluoro-pyrrolidin-1-yl)-pyridin-3-yl]-1,3-dihydro-imidazo[4,5-c]quinolin-2-one] | 1 nM | – |
| 26 nM | – | COc1cc(-c2ccc3ncc4c(c3c2)n(-c2ccc(N3CC[C@H](O)C3)nc2C)c(=O)n4C)cnc1CO [Example 32.7, 8-(6-Hydroxymethyl-5-methoxy-pyridin-3-yl)-1-[6-((S)-3-hydroxy-pyrrolidin-1-yl)-2-methyl-pyridin-3-yl]-3-methyl-1,3-dihydro-imidazo[4,5-c]quinolin-2-one] | 21.4 nM | – |
| 59 nM | – | COc1ccc(-n2c(=O)n(C)c3cnc4ccc(-c5cnc(CO)c(OC)c5)cc4c32)c(OC)n1 [Example 8.14, 1-(2,6-Dimethoxy-pyridin-3-yl)-8-(6-hydroxymethyl-5-methoxy-pyridin-3-yl)-3-methyl-1,3-dihydro-imidazo[4,5-c]quinolin-2-one] | – | – |
| 54 nM | – | COc1cc(-c2ccc3ncc4c(c3c2)n(-c2ccc(N)nc2C)c(=O)n4C)cnc1CO [Example 30.1, 1-(6-Amino-2-methyl-pyridin-3-yl)-8-(6-hydroxymethyl-5-methoxy-pyridin-3-yl)-3-methyl-1,3-dihydro-imidazo[4,5-c]quinolin-2-one] | – | – |

From patent US20100311714A1, “1H-IMIDAZO[4,5-c]QUINOLINONE COMPOUNDS” (priority 2009, published 2010)
